Measured values reported in a melting point compilation (Tetko et al.; mined from patent text by program, amines drawn as free bases though some values may be those of a salt).

| Structure (SMILES) | melting point |
| --- | --- |
| O=Cc1ccc(-c2cc(-c3c(-c4ccccn4)nc4ccccn34)ccn2)cc1 | 216 to 218 °C |
| COc1ccc(CC2NCCOc3c2cnn(C)c3=O)cc1 (stereo not given) | 92 to 93 °C |
| COC(=O)c1ccc2c(c1)Sc1cc(F)ccc1C=C2 | 132 to 135 °C |
| Cc1cccc(NC(=O)NCC(=O)N(CC(=O)OCC2CC2)c2ccccc2)c1 | 158 °C |
| Nc1cc2c(Nc3ccc4c(cnn4Cc4cccc(F)c4)c3)ncnc2cn1 | 241 to 244 °C |
| Cc1ccn(-c2ccc(C)c(C(=O)c3cccc4c3Nc3ncccc3CN4)c2)n1 | 138 to 140 °C |
| CS(=O)(=O)c1ccc(-c2sc(COc3cccc(Cl)c3)nc2-c2ccccc2F)cc1 | 152 to 153 °C |
| O=C(O)C(=O)CC(=O)c1cccn1Cc1ccccc1 | 150 to 151 °C |
| O=C(c1n[nH]c2c(=O)[nH]c3cc(Cl)ccc3c(=O)c12)N(O)Cc1ccccc1 | 282 to 285 °C |
| CC(=O)C=CSc1ncc(Cl)cn1 | 89 °C |
| CCOC(=O)C(C)=C(C)NC(=O)Nc1ccc(Cl)c(C(=O)OCC)c1 | 88 to 91 °C |
| O=C/C=C/c1c(Cl)cc(Cl)cc1OCc1ccccc1 | 109 to 112 °C |
| O=c1c(Br)c(OCc2ccc(Cl)cc2)cnn1-c1ccc(Cl)cc1 | 168 to 175 °C |
| O=c1c2ccc(O)cc2[nH]c2c([N+](=O)[O-])ccc(Cl)c12 | 292 to 294 °C |
| N#Cc1ccc2c([N+](=O)[O-])cc3c(c2c1)C(CCl)CN3 (stereo not given) | 231 to 234 °C |
| CCCC(=O)OCC(=O)C1(OC(=O)CC)CCC2C3CC(C)C4=CC(=O)CCC4(C)C3C(O)CC21C (stereo not given) | 211 °C |
| COc1cc(C=CC=C2SC(=O)NC2=O)ccc1OCc1csc(-c2ccccc2)n1 | 248 to 249 °C |
| CCCCc1c(OS(=O)(=O)c2ccc(C)cc2)n(-c2ccccc2)n(-c2ccccc2)c1=O | 112 to 121 °C |
| OC1=CC(=NNc2ccc(F)cc2)CCC1 | 175 to 176 °C |
| COc1ccc(-c2ccc(C(C)=O)cc2Cl)c(OC)c1 | 115 to 118 °C |
| O=[N+]([O-])c1cc(-c2nnc(Cl)cc2O)ccc1Cl | 204 to 209 °C |
| CS(=O)(=O)NC(=O)c1cc(Oc2c(Cl)cc(Cl)cc2Cl)ccc1[N+](=O)[O-] | 228 °C |
| CCCCCCCCCCc1ccc2ccc(C)c(O)c2c1 | 65 to 67 °C |
| O=C(O)c1cc(Br)cc(C(=O)C=Cc2ccccc2)c1O | > 250 °C |
| CCCCCN(Cc1ccc(-c2ccccc2S(=O)(=O)NC(=O)c2ccccc2Cl)cc1)C(=O)N(Cc1ccccc1)c1ccccc1 | > 60 °C |

| Structure (SMILES) | melting point |
| --- | --- |
| Cc1ccc(CNc2ccc3c(C#N)cccc3n2)o1 | 102 °C |
| O=[N+]([O-])c1cccc(-c2cccc([N+](=O)[O-])c2)c1 | 200 °C |
| C=C(C)c1ccc2cc(OC)ccc2c1 | 101 °C |
| N#CSCCNc1ccccc1[N+](=O)[O-] | 112 to 113 °C |
| CSCC[C@@H](NC(=O)[C@H](Cc1ccc(O)cc1)NC(=O)OC(C)(C)C)C(=O)NCC(=O)O | 194 °C |
| O=[N+]([O-])c1ccc(NCCc2ccccc2)cc1 | 57 to 59 °C |
| O=C(NOCCO)c1cc(Br)c(F)c(F)c1Nc1ccc(I)cc1F | 189 to 190 °C |
| C[C@@H]1CN(c2ccc(C(F)(F)F)nc2)C[C@H](C)N1CC(=O)N1CC=C(c2ccc3c(c2)OCCO3)CC1 | 200 to 201 °C |
| CNC(=O)c1ccc(-c2n[nH]c3c2Cc2ccccc2-3)cc1 | 182 to 188 °C |
| Cc1onc(CCc2ccccc2)c1C(N)=O | 135 to 136 °C |
| CCOc1nc2c(Cl)cccc2s1 | 43 to 45 °C |
| O=C1Nc2ccccc2SC1CCCCN1CCN(c2ccc(F)cc2)CC1 (stereo not given) | 150 to 151 °C |
| COc1cc(Nc2nc(-c3ccccc3)cs2)ccc1-c1cnco1 | 193 to 195 °C |
| CCOC(=O)NNc1ccc(N(C)CCO)nn1 | 131 to 133 °C |
| CCCCOc1ccccc1-c1nc(Cl)cc(OCCC(C)C)n1 | 47 to 50 °C |
| CC(=O)N1CCOc2ccc(C3=NNC(=O)CC3)cc21 | 156 to 158 °C |
| Cc1cn(COC(COCc2ccccc2)COCc2ccccc2)c(=O)[nH]c1=O | 96 to 98 °C |
| CCCCCCCCCCCCCCCc1cc2c(C(=O)OCC)cccc2[nH]1 | 42 to 45 °C |
| CC(NC1CCC(=O)NC1c1ccc(F)cc1)c1cc(C(F)(F)F)cc(C(F)(F)F)c1 (stereo not given) | 120 °C |
| CCCOc1cc(CC)c(C(=O)OC)c(C(=O)O)c1 | 99 to 100 °C |
| CC(=O)N(CCCc1ccccc1)[C@H]1CC[C@H](c2ccc(O)cc2)CC1 | 175 to 180 °C |
| CCCCc1nc2c(N)nc3cc(-c4ccc(C(C)(C)C)cc4)ccc3c2n1CC(C)C | 219 to 220 °C |
| O=C1CC(CO)C(c2ccc(N3CCOCC3)c(Cl)c2)=NN1 (stereo not given) | 173 to 175 °C |
| COC(=O)c1ccc(NC(C)=O)cc1NC(=O)NC(C)C | 153 to 155 °C |
| Cc1ccc([C@H](CC(=O)O)NC(=O)Nc2c(OCc3ccccc3)cc(C)n(Cc3ccccc3)c2=O)cc1 | 124 to 126 °C |

| Structure (SMILES) | melting point |
| --- | --- |
| COc1ccc(C(=O)c2cc(-c3ccncc3)c(N3CCOCC3)s2)cc1 | 193 °C |
| COC(=O)c1c(Sc2nc(OC)cc(OC)n2)cccc1C(C)=O | 149 to 151 °C |
| CCn1ccc(=O)c2cnc(-c3cccnc3)nc21 | 195 to 196 °C |
| CCOC(=O)c1cnc(-c2ccc(C(F)(F)F)cc2)s1 | 98 to 110 °C |
| CC(CC(C(=O)N(C)C)(c1ccccc1)c1ccccc1)N1CCC(NC(=O)c2cnc[nH]2)C(O)C1 (stereo not given) | 155 °C |
| CC(C)=NNC(=O)NCCCN(C)CCCNC(=O)NN=C(C)C | 113 to 114 °C |
| NNc1cc2ccccc2[nH]1 | 165 to 167 °C |
| CC(=O)Nc1c([N+](=O)[O-])cc(F)c(F)c1F | 96 to 97 °C |
| COc1ccc(C=Cc2c(Cl)cncc2Cl)c2c1CC1(CCCC1)O2 | 99 to 101 °C |
| CCCn1c(CCOC)nc2c(N)nc3cc(OCCCS(C)(=O)=O)ccc3c21 | 170 to 171 °C |
| O=C1CC(CO)N1C(c1ccccc1)c1ccccc1 (stereo not given) | 101 to 102 °C |
| COCc1c(Cl)nnc(Cl)c1OC | 28 to 32 °C |
| O=Cc1ccc(O)c(CP(=O)(O)O)c1 | 252 to 253 °C |
| C=Cc1cc(O)cc2nc(-c3ccc(OP(=O)(OCC)OCC)c(F)c3)oc12 | 134 to 136 °C |
| COc1cccc(CNC(=O)c2nc(OC)c3ccccc3n2)c1 | 129 to 130 °C |
| COc1cn(-c2ccc(OCc3ccccc3)cc2F)nc(-c2ccnn2-c2ccccc2)c1=O | 181 to 183 °C |
| CC(=O)N(C)Cc1cc2c(-c3ccccc3)c(CC(=O)Nc3ccc(Cl)cc3C(F)(F)F)c(=O)oc2cc1Cl | 199 to 201 °C |
| O=C(O)CN1CCOc2ccc([N+](=O)[O-])cc2C1=O | 110 to 120 °C |
| CC(=NNc1ccc(C2=NNC(=O)CC2)cc1)c1cccnc1 | 236 to 237 °C |
| CCCc1c(OCCSc2nc3ccc(C(=O)O)cc3[nH]2)ccc(C(C)=O)c1O | 108 to 110 °C |
| C[C@@H](NC(=O)[C@@H](NC(=O)[C@H](CCCc1ccc(-c2ccccc2)c(Cl)c1)CC(=O)NO)C(C)(C)C)c1ccccc1 | 107 to 109 °C |
| CC(=O)OCC(C)C1CCC2C3CC=C4CC(OC5CCCCO5)CC(OC5CCCCO5)C4(C)C3CCC12C (stereo not given) | 155 to 161 °C |
| COC(=O)CC[C@H](NC(=O)c1cc(CCC2CNc3nc(N)nc(O)c3C2)c[nH]1)C(=O)OC (stereo not given in full) | 151 to 153 °C |
| CC(C)(C(=O)c1cccs1)C(=O)c1cccs1 | 153 to 156 °C |
| COCC(C)(C)C(=O)O[C@H]1C[C@H](O)C=C2C=C[C@H](C)[C@H](CC[C@@H]3C[C@@H](O)CC(=O)O3)[C@H]21 | 140 to 142 °C |

| Structure (SMILES) | melting point |
| --- | --- |
| Cn1c(C(F)(F)F)cc(=O)n(-c2cc(S(=O)(=O)n3cccn3)c(Cl)cc2F)c1=O | 172 °C |
| COc1ccc(F)cc1C(C)(C)CC(O)(Cc1ccc(C(=O)O)cc1)C(F)(F)F (stereo not given) | 174 to 177 °C |
| CC(=NOCCOc1ccc(CC2SC(=O)NC2=O)cc1)c1ccc(-c2ccc(C)cc2)cc1 (stereo not given) | 184 to 186 °C |
| CCC(=O)Nc1nc(N[C@H]2c3cc(C)ccc3C[C@@H]2C)nc(C(F)F)n1 | 66 °C |
| C=CCSc1cc(C(=O)O)cc(N=Nc2cc(C(=O)O)cc(SCC=C)c2C(=O)c2ccccc2)c1C(=O)c1ccccc1 | 162 to 163 °C |
| CCOc1cc([N+](=O)[O-])c2c(c1)C1(C)CCN(C)C1N2C (stereo not given) | 106 to 108 °C |
| Cc1ccc(CNc2nc(Nc3cccc(N)c3)nc(OCC(F)(F)F)n2)o1 | 75 to 77 °C |
| COc1ncc(Cl)cc1Br | 45 to 47.5 °C |
| CCNc1cc(O)c(C)cc1Cl | 205 °C |
| CCS(=O)(=O)CC(=O)c1cc(C(C)(C)C)c(O)c(C(C)(C)C)c1 | 120 °C |
| C=CCN1CCC23CCCCC2C1Cc1ccc(O)cc13 (stereo not given) | 197 to 198 °C |
| CCOP(=O)(CNCc1ccnc(-c2cc(OC)c(O)c(OC)c2)c1)OCC | 124 to 126 °C |
| CCNC(=O)c1ccc(CN2C(=O)C3(COc4cc5c(cc43)CCO5)c3ccccc32)cc1 (stereo not given) | 190 to 191 °C |
| COc1ccc(C2CC(=O)N(C(=O)c3cncc(Br)c3)N2C)cc1OC1CCCC1 (stereo not given) | 139 to 141 °C |
| O=S1(=O)NCNc2ccc(F)cc21 | 159 to 165 °C |
| CNC(=O)CCc1ccc(F)cc1F | 90 to 91 °C |
| O=S1(=O)c2ccccc2Oc2cc(OCC(F)(F)F)ccc21 | 165 to 166 °C |
| COc1cc2c(cc1OC)C(=O)C(C)C(C)O2 (stereo not given) | 171 to 172 °C |
| N#CC(=C(O)C1CCN(Cc2ccccc2)CC1)c1ccccc1 | 192 °C |
| Brc1ccc(OC2CCN(CCc3c[nH]c4ccccc34)CC2)cc1 | 132 to 134 °C |
| COCC1CNc2nc(N)[nH]c(=O)c2N1 (racemic) | > 250 °C |
| CCCCOCCOc1ccc(-c2ccc3c(c2)C=C(C(=O)Nc2ccc(S(=O)CCc4nncn4CCC)cc2)CCN3CCC)cc1 (stereo not given) | 93 to 101 °C |
| CN(c1ccccc1-c1ccc2cnc(Nc3ccc(C4CCN(CC(N)=O)CC4)cc3)nn12)S(C)(=O)=O | 170 °C |
| O=c1oc(-c2ccccc2)nc2cccc(Cl)c12 | 151 to 153 °C |
| CC(C)Cn1c(CNC(=O)OC(C)(C)C)c(OCCCC(F)(F)F)c2cc(O)ccc2c1=O | 173 to 174 °C |
